# Results published in patent US20100048705A1, “METHODS OF TREATING AND PREVENTING NEOVASCULARIZATION WITH OMEGA-3 POLYUNSATURATED FATTY ACIDS” (CHILDREN'S MEDICAL CENTER CORPORATION, priority 2006, published 2010).
# Entries after “also recorded” stand apart in the source; their conditions may differ.
# Tests used:
# [1] = test system: TNF-α; conditions: literature refs 14, 15, 16; cited from earlier work
# [2] = test system: mice with oxygen-induced retinopathy; test: Oxygen-induced retinopathy model: vaso-obliteration and retinal neovascularization at P17; format: in vivo, mouse; conditions: for decrease in vessel loss (VO) compared to vehicle control / decrease in neovascularization (Tufts) compared to vehicle-treated mice: 10 ng i.p. daily P6-P17, read at P17; for decrease in vessel loss (VO) compared to vehicle control / protection from vaso-obliteration compared to saline-injected controls: FIG. 7a; for decrease in neovascularization (Tufts) compared to vehicle-treated mice / neovascularization at P17 compared to saline controls: FIG. 7b; for neovascularization at P17 compared to saline controls / protection from vaso-obliteration compared to saline-injected controls: 10 ng/day i.p. P6-P17
# Description: Retinopathy is modeled in the mouse eye with oxygen-induced vessel loss which precipitates hypoxia-induced retinopathy^1. One-week-old C57BL/6J mice are exposed to 75% oxygen for 5 days and then to room air. A fluorescein-dextran perfusion method is used to assess the vascular pattern. The proliferative neovascular response is quantified by counting the nuclei of new vessels extending from the retina into the vitreous in 6 microns sagittal cross-sections. Cross-sections are also stained for glial fibrillary acidic protein (GFAP). Fluorescein-dextran angiography delineates the entire vascular pattern, including neovascular tufts in flat-mounted retinas. Hyperoxia-induced neovascularization occurs at the junction between the vascularized and avascular retina in the mid-periphery. Retinal neovascularization occurs in all the pups between postnatal day 17 and postnatal day 21. This serves as a reproducible and quantifiable mouse model of oxygen-induced retinal neovascularization for the study of pathogenesis of retinal neovascularization as well as for the study of medical intervention for ROP and other retinal angiopathies in humans. This model allows assessment of retinal vessel loss, vessel re-growth after injury and pathological angiogenesis^1.
# Litters of mice were subjected to the oxygen induced retinopathy model. Briefly, mice (pups with mothers) on normal chow were placed in 75% oxygen at postnatal day 7, and kept at 75% oxygen for five days. Mice were then returned to room air. During this room air phase (P12-P17) the retina becomes hypoxic due to the vessel regression that occurred while mice were in hyperoxia. Here mice were given either an omega-3 or omega-6 LCPUFA diet. At p12 (once out of oxygen, after vessel loss) or at P15 (a few days later as retinopathy was setting in).
# Animals. These studies adhered to the ARVO Statement for the Use of Animals in Ophthalmic and Vision Research. Fat-1 transgenic mice contain a humanized fat-1 cDNA driven by the cytomegalovirus enhancer and a chicken β-actin promoter^9. Fat-1 and control dams were fed a defined diet with elevated omega-6 polyunsaturated fatty acids. For diet studies C57Bl/6 mothers at delivery (unless otherwise indicated for FIG. 12) were fed a defined rodent diet with 10% (w/w) safflower oil containing 2% omega-6 polyunsaturated fatty acids (AA) and no omega-3 polyunsaturated fatty acids or the same defined diet except for 2% omega-3 polyunsaturated fatty acids (DHA and EPA) and no omega-6 polyunsaturated fatty acids (AA). (Table 1) Diets were stable over time and with oxygen exposure (Table 2), unless otherwise indicated.
# (§1) O2-induced retinopathy (vessel degeneration, re-growth and pathological neovascularization). To induce vessel loss, postnatal day 7 (P7) mice with their nursing mother were exposed to 75% oxygen for times ranging from 24 hours to 5 days^1. To evaluate vaso-obliteration following 24 hours of oxygen exposure, P8 mice were anesthetized at with Avertin (Sigma) and perfused with 50 μl of 120 mg/ml FITC-dextran (2×10^6 molecular weight, FD2000S-5G, Sigma) in saline through the left ventricle^21. Eyes were enucleated and fixed in 4% paraformaldehyde for 2 h at 4° C. Retinas were isolated and whole-mounted with SlowFade Antifade reagent (S2828, Molecular Probes) onto polylysin-coated slides with the photoreceptor side up. Retinas were examined with a fluorescence microscope (Olympus, Tokyo), digitized images using a three-charge-coupled device color video camera (DX-950P, Sony), and processed with NORTHERN ECLIPSE software (Empix Imaging, Toronto). Retinal neovascularization was evaluated 5 days after oxygen exposure (P7-P12) at P17 when the neovascular response is greatest. P17 mice were given a lethal dose of Avertin (Sigma) and their eyes were enucleated and fixed in 4% paraformaldehyde for 2 h at 4° C. […]
# [3] = test system: mice exposed to 75% oxygen; test: Oxygen-induced vessel loss (vaso-obliteration) at P8 after 24 hours of 75% oxygen; format: in vivo, mouse; conditions: 10 ng i.p. P5-P8; FIG. 7c
# Experimental: as §1, with “greatest.” for “greatest. P17 mice were given a lethal dose of Avertin (Sigma) and their eyes were enucleated and fixed in 4% paraformaldehyde for 2 h at 4° C.”
# Quantification of vaso-obliteration and retinal neovascularization. […] Vaso-obliteration and neovascular tuft formation were quantified by comparing the number of pixels in the affected areas with the total number of pixels in the retina. […]
# Resolvins and Neurorotectins. […] Retinas collected at P17 from omega-6 or omega-3 polyunsaturated fatty acid fed dams and exposed to high oxygen or room air conditions were analyzed to determine lipid mediator profiles. Polyunsaturated fatty acid derived products were extracted, identified, and quantified using a deuterium-labelled internal standard and MS-MS based mediator informatics^23. […] Following retinal staining and whole-mounting, neovascularization and vaso-obliteration were quantified at P17. Vaso-obliteration was also assessed at P8 (after 24 hours of 75% oxygen exposure) in pups given 10 ng of RvD1 (n=7), RvE1 (n=9), NPD1 (n=7), or saline/EtOH vehicle injections (n=6) i.p. from P5-P8. […]
Compound,TNF-α mRNA expression levels in inflammatory models [1],decrease in vessel loss (VO) compared to vehicle control [2],decrease in neovascularization (Tufts) compared to vehicle-treated mice [2],neovascularization at P17 compared to saline controls [2],protection from vaso-obliteration compared to saline-injected controls ([2]; P17),oxygen-induced vessel loss at P8 versus saline-injected control [3],"vaso-obliteration versus fellow saline-injected eye ([2]; intraocular (intravitreous) 12.5 μg at P12, omega-6 fed mice, P17, FIG. 11a)","retinal neovascularization versus fellow saline-injected eye ([2]; intraocular (intravitreous) 12.5 μg at P12, omega-6 fed mice, P17, FIG. 11b)","vaso-obliteration (vessel loss) versus saline injected controls ([2]; intraperitoneal, 500 μg/mouse at P7, P12, P14, P16, omega-6 fed mice, P17, FIG. 10a)","pathologic neovascularization versus saline injected controls ([2]; intraperitoneal, 500 μg/mouse at P7, P12, P14, P16, omega-6 fed mice, P17, FIG. 10b)"
"CC/C=C\C[C@H](O)\C=C/C=C/C=C/[C@H](O)C/C=C\C/C=C\CCC(=O)O [NPD1, 10R,17S dihydroxy-docosa-4Z,7Z,11E,13E,15Z,19z-hexaneoic acid]",significantly reduce,40%,30%,less neovascularization,significant protection,No apparent differences; also recorded: no protective action,,,,
"CC/C=C\C[C@H](O)/C=C/C=C\C=C\C=C\[C@@H](O)[C@@H](O)C/C=C\CCC(=O)O [RvD1, 7S,8R,17S-trihydroxy-docosa-4Z,9E,11E,13Z,15E,19Z-hexaenoic acid]",significantly reduce,40%,30%,less neovascularization,significant protection,No apparent differences,,,,
"CC[C@@H](O)/C=C/C=C\C[C@@H](O)/C=C/C=C/C=C\[C@@H](O)CCCC(=O)O [RvE1, 5S,12R,18R-trihydroxy-6Z,8E,10E,14Z,16E-eicosapentaenoic acid]",significantly reduce,40%,30%,less neovascularization,significant protection,No apparent differences; also recorded: no protective action,,,,
etanercept [reference compound],,,,,,,significantly reduce,suppressed; also recorded: significantly improved,significantly protected; also recorded: significant reduction,significantly protected; also recorded: significant reduction
